Test results published in ChEMBL document CHEMBL1201862, “PubChem BioAssay data set” (2004).
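A five-concentration, 48-hour dose response in 96-well plates underlies each endpoint, interpolated linearly between surrounding concentrations. At the GI50, growth is halved.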 Active and inactive are the calls of the source. Rule as the data show it: active = GI50 up to about 1.1 µM and inactive = higher.

What was measured:
Assay in all cases: growth of human tumour cells (NCI), 48 h
A498 = system: A498
BT-549 = system: BT-549
CAKI-1 = system: CAKI-1
CCRF-CEM = system: CCRF-CEM
HOP-62 = system: HOP-62
M14 = system: M14
MCF7 = system: MCF7
MDA-N = system: MDA-N
NCI/ADR-RES = system: NCI/ADR-RES
PC-3 = system: PC-3
SF-268 = system: SF-268
SK-MEL-2 = system: SK-MEL-2
T47D = system: T47D
TK-10 = system: TK-10
UACC-62 = system: UACC-62
HL-60 = system: HL-60
LOX IMVI = system: LOX IMVI
SR = system: SR

SMILES	GI50 (A498)	GI50 (BT-549)	GI50 (CAKI-1)	GI50 (CCRF-CEM)	GI50 (HOP-62)	GI50 (M14)	GI50 (MCF7)	GI50 (MDA-N)	GI50 (NCI/ADR-RES)	GI50 (PC-3)	GI50 (SF-268)	GI50 (SK-MEL-2)	GI50 (T47D)	GI50 (TK-10)	GI50 (UACC-62)	GI50 (HL-60)	GI50 (LOX IMVI)	GI50 (SR)
COC(=O)[C@@H](N1C(=O)c2ccccc2C1=O)C1(C)CC(Cl)=NO1 (stereo partly drawn)	34.7 µM (inactive)	42.7 µM (inactive)	12.7 µM (inactive)	> 100 µM (inactive)	17 µM (inactive)	> 100 µM (inactive)	53.6 µM (inactive)	> 100 µM (inactive)	26.8 µM (inactive)	> 100 µM (inactive)	29.3 µM (inactive)	> 100 µM (inactive)	28.5 µM (inactive)	31.1 µM (inactive)	> 100 µM (inactive)			
Cc1ccc(NC(=O)/C=C/c2ccccc2)c(C)c1	> 100 µM (inactive)	> 100 µM (inactive)	> 100 µM (inactive)	> 100 µM (inactive)	32.7 µM (inactive)	> 100 µM (inactive)	> 100 µM (inactive)	> 100 µM (inactive)		> 100 µM (inactive)	52 µM (inactive)	> 100 µM (inactive)	> 100 µM (inactive)	> 100 µM (inactive)	> 100 µM (inactive)	> 100 µM (inactive)	> 100 µM (inactive)	> 100 µM (inactive)
O[C@@H]1CCC[C@@H]2NC[C@@H](c3ccc4c(c3)OCO4)[C@H]12	> 100 µM (inactive)		> 100 µM (inactive)	> 100 µM (inactive)	> 100 µM (inactive)	> 100 µM (inactive)	> 100 µM (inactive)	> 100 µM (inactive)	> 100 µM (inactive)	> 100 µM (inactive)	> 100 µM (inactive)	> 100 µM (inactive)	> 100 µM (inactive)	> 100 µM (inactive)	> 100 µM (inactive)	96.4 µM (inactive)	> 100 µM (inactive)	> 100 µM (inactive)
COc1ccc2c3c1OC1C(OC)(OC)C=C[C@@]4(Br)[C@@H](C2)N(CC2CC2)CC[C@]314 (stereo partly drawn)	> 100 µM (inactive)		59 µM (inactive)	86.9 µM (inactive)	> 100 µM (inactive)	27.1 µM (inactive)	52.1 µM (inactive)	49.5 µM (inactive)	> 100 µM (inactive)	99.1 µM (inactive)	32.1 µM (inactive)	38.5 µM (inactive)	97.9 µM (inactive)	> 100 µM (inactive)	68.5 µM (inactive)	> 100 µM (inactive)	87.9 µM (inactive)	> 100 µM (inactive)
O=[N+]([O-])c1cccc2nccc(NCCCO)c12	10.4 µM (inactive)	8.93 µM (inactive)	13.8 µM (inactive)	14.7 µM (inactive)	17.5 µM (inactive)	12.9 µM (inactive)	12.7 µM (inactive)	9.66 µM (inactive)		20.7 µM (inactive)	11.6 µM (inactive)	4.38 µM (inactive)	26.4 µM (inactive)	8.79 µM (inactive)	8.57 µM (inactive)	11.6 µM (inactive)	12.9 µM (inactive)	7.66 µM (inactive)
N#C/C(=C/NC(=S)NCc1ccccc1)C(N)=O	> 100 µM (inactive)		> 100 µM (inactive)	> 100 µM (inactive)	> 100 µM (inactive)	> 100 µM (inactive)	> 100 µM (inactive)	> 100 µM (inactive)	> 100 µM (inactive)	> 100 µM (inactive)	> 100 µM (inactive)	> 100 µM (inactive)	> 100 µM (inactive)		> 100 µM (inactive)	> 100 µM (inactive)	> 100 µM (inactive)	> 100 µM (inactive)
CCOC(=O)c1c(N2CCOCC2)[nH]c(=O)c(C(c2c(Cl)cccc2Cl)c2c(O)c(C(=O)OCC)c(N3CCOCC3)[nH]c2=O)c1O	8.71 µM (inactive)	7.76 µM (inactive)	2.31 µM (inactive)	1.64 µM (inactive)	16.1 µM (inactive)	2.4 µM (inactive)	2.47 µM (inactive)		18 µM (inactive)	15.5 µM (inactive)	8.22 µM (inactive)	4.74 µM (inactive)	4.01 µM (inactive)	4.66 µM (inactive)	6.9 µM (inactive)	1.96 µM (inactive)	2.91 µM (inactive)	3.97 µM (inactive)
CC[C@]1(Cc2ccc(OC)c(OC)c2)C=[N+]([O-])O[C@H](OCc2ccccc2)[C@@H]1OC(C)=O	32.7 µM (inactive)		24.8 µM (inactive)	19.6 µM (inactive)	34.2 µM (inactive)	33.5 µM (inactive)	29.7 µM (inactive)	36.1 µM (inactive)	33.3 µM (inactive)	20.5 µM (inactive)	23.7 µM (inactive)	23 µM (inactive)	20 µM (inactive)	41.7 µM (inactive)	26.2 µM (inactive)	16.6 µM (inactive)	17.5 µM (inactive)	24.3 µM (inactive)
COC(=O)C1=C(OC(=O)/C(=C/c2ccc(Cl)cc2)c2ccc(Cl)cc2)C(C(=O)OC)[C@]2(O)[C@@H](C(=O)OC)[C@H]1C[C@@H](c1ccccc1)[C@@H]2C(=O)OC (stereo partly drawn)		90.4 µM (inactive)	> 100 µM (inactive)		32.7 µM (inactive)	30.1 µM (inactive)		> 100 µM (inactive)	> 100 µM (inactive)	62.5 µM (inactive)	> 100 µM (inactive)	> 100 µM (inactive)	> 100 µM (inactive)	> 100 µM (inactive)	> 100 µM (inactive)	> 100 µM (inactive)	> 100 µM (inactive)	
CCOC(=O)C1=C(c2ccccc2)C12N(Cc1ccccc1)C(=O)C2(c1ccccc1)c1ccccc1 (stereo not drawn)	36.8 µM (inactive)	24.8 µM (inactive)		25.8 µM (inactive)	67 µM (inactive)	43.4 µM (inactive)	38.6 µM (inactive)	25.5 µM (inactive)		21.3 µM (inactive)	> 100 µM (inactive)	24 µM (inactive)	43.2 µM (inactive)	> 100 µM (inactive)	39.5 µM (inactive)	34.9 µM (inactive)	34.9 µM (inactive)	45.3 µM (inactive)
COC(=O)C1(CCCCCBr)CCCCCCCCCCC1=O (stereo not drawn)	28.3 µM (inactive)		25.5 µM (inactive)	22.6 µM (inactive)	> 100 µM (inactive)	40.2 µM (inactive)	15.7 µM (inactive)	29.2 µM (inactive)	37.2 µM (inactive)	44.1 µM (inactive)	51.6 µM (inactive)	28.9 µM (inactive)	32.8 µM (inactive)	> 100 µM (inactive)	79.6 µM (inactive)	30 µM (inactive)	27.3 µM (inactive)	33.5 µM (inactive)
O=C1OC(c2ccccc2)=N/C1=C\c1cn[nH]n1	> 100 µM (inactive)		> 100 µM (inactive)	97.1 µM (inactive)	> 100 µM (inactive)	> 100 µM (inactive)	> 100 µM (inactive)	> 100 µM (inactive)	> 100 µM (inactive)	> 100 µM (inactive)	> 100 µM (inactive)	> 100 µM (inactive)	> 100 µM (inactive)	> 100 µM (inactive)	> 100 µM (inactive)	> 100 µM (inactive)	> 100 µM (inactive)	59.6 µM (inactive)
O=C1C=CC[C@H]2O[C@@H](COC(=O)Cc3ccccc3)C[C@H]2O1	> 100 µM (inactive)		38.5 µM (inactive)	41.4 µM (inactive)	41.2 µM (inactive)	31.7 µM (inactive)	44.3 µM (inactive)	41 µM (inactive)	38 µM (inactive)	35.2 µM (inactive)	25 µM (inactive)	51.5 µM (inactive)	58.1 µM (inactive)	25.9 µM (inactive)	41.9 µM (inactive)	16.5 µM (inactive)		32 µM (inactive)
CSCCCCCCCCCCOc1ccc(C=C2C(=C(C#N)C#N)c3ccccc3C2=C(C#N)C#N)cc1	17 µM (inactive)		17.1 µM (inactive)	1.32 µM (inactive)	17.9 µM (inactive)	17.9 µM (inactive)	14.5 µM (inactive)	18.3 µM (inactive)	29 µM (inactive)	17.6 µM (inactive)	17.9 µM (inactive)	20.1 µM (inactive)	21.6 µM (inactive)	19.4 µM (inactive)		0.0962 µM (active)	23.5 µM (inactive)	15 µM (inactive)
COC(=N)c1ncn(Cc2ccccc2)c1N	> 100 µM (inactive)		> 100 µM (inactive)	> 100 µM (inactive)	> 100 µM (inactive)	> 100 µM (inactive)	> 100 µM (inactive)	> 100 µM (inactive)	> 100 µM (inactive)	> 100 µM (inactive)	> 100 µM (inactive)	> 100 µM (inactive)	> 100 µM (inactive)	> 100 µM (inactive)	> 100 µM (inactive)		> 100 µM (inactive)	
COc1cc(/C=C2\CCc3ccccc3C2=O)ccc1O	> 10 µM (inactive)	17.9 µM (inactive)	24.3 µM (inactive)	1.41 µM (inactive)		17.9 µM (inactive)	11.1 µM (inactive)		29.5 µM (inactive)	> 10 µM (inactive)	27.1 µM (inactive)			18.7 µM (inactive)	> 10 µM (inactive)	4.24 µM (inactive)	15 µM (inactive)	11.2 µM (inactive)
C/C=C/c1cc(=O)c([C@@H]2OC(=O)c3cc(OC)cc(OC)c32)co1 [VERMISTATIN]			42.1 µM (inactive)	24.1 µM (inactive)	53 µM (inactive)	58.7 µM (inactive)					43.5 µM (inactive)	28.5 µM (inactive)		57.5 µM (inactive)	25.9 µM (inactive)	27.4 µM (inactive)		27.6 µM (inactive)
